Test results from US20250065017A1, “Fractionating Extracellular Matrix to Modulate Bioactivity and the Host Response” (University of Pittsburgh - Of the Commonwealth System of …, priority 2014, published 2025).

System: THP1 macrophage-like cells
Test: Secreted factor analysis (ELISA)
Assay type: cell-based, human
Method: THP-1 human monocytes were obtained from the American Tissue Culture Collection (ATCC, Manassas, VA) and maintained in RPMI, 10% FBS, 1% penicillin/streptomycin, 2 mM L-glutamine, and 1 mM sodium pyruvate in a humidified atmosphere at 37° C. with 5% CO2. For experiments, 500,000 THP-1 cells/mL were plated with 320 nM phorbol 12-myristate 13-acetate (PMA) for 24 hours to induce differentiation into macrophages. Adherent macrophages were washed in PBS and placed in fresh media, followed by a 24 hour incubation to acquiesce. […] Once cells were prepared as described above, aspirin (200 µM, where appropriate) was added for 1 hour. Subsequently, UBM hydrogel (0.5 mg/mL) or pepsin control buffer (0.05 mg/mL) was added and cells were allowed to incubate for 24-72 hours. After incubation, cells were pelleted by centrifugation (700×g, 5 minutes, 4° C.), and the culture supernatants were carefully removed. Supernatants were stored at -80° C. until the time of assay. Secreted factor concentrations in the culture supernatants were determined using commercially available ELISA kits (PGE2, PGF2α, ENZO Life Sciences) and IL-1RA (R&D Systems)) according to the manufacturer's instructions.

[1] = Aspirin 200 μM with UBM hydrogel 0.5 mg/mL, 48 hours

`CC(=O)Oc1ccccc1C(=O)O` [Aspirin] was tested, and the IL-1RA secretion [1] was “did not cause any significant drop in IL-1RA secretion”, the “production of PGE2 and PGF2α” value [1] was “reduced production of both PGE2 and PGF2α down to basal levels” and the PGE2 production (THP1, UBM hydrogel 0.5 mg/mL 48 hours, inhibitor pre-treatment 1 hour) was “reduced PGE2 production to baseline levels”.
